Literature values in US20260021122A1, “CANNABINOIDS AND USES THEREOF IN TREATMENT OF A DISEASE” (TECHNION RESEARCH & DEVELOPMENT FOUNDATION LIMITED, priority 2022, published 2026).

Assays:
MDSCs = settings: one study, literature; cited from earlier work
[1] = test system: triple-negative breast cancer; settings: conditioned media from CBD-treated cancer cells, literature; cited from earlier work

CCCCC/C=C\C/C=C\C/C=C\C/C=C\CCCC(=O)OC(CO)CO [2-AG, 2-arachidonoylglycerol]
antitumor effects (MDSCs): exhibits direct antitumor effects | suppressive immune cell population of MDSCs (MDSCs): increasing the suppressive immune cell population of MDSCs

C=C(C)[C@@H]1CCC(C)=C[C@H]1c1c(O)cc(CCCCC)cc1O [CBD, Cannabidiol]
levels of CCL3 [1]: lowered the levels | levels of Granulocyte-macrophage (GM)-CSF [1]: lowered the levels
